Experiments:
A549 = assay: Antiproliferative activity against human A549 cells incubated for 3 days by CellTiter-Glo assay; format: functional, cell-based; conditions: A549, 72 h
[1] = test system: GTPase KRas (Homo sapiens), P01116 [G12C]; assay: Binding affinity to human hexahistidine-tagged KRas G12C mutant (1 to 169 residues) expressed in Escherichia coli(BL21 (DE3)) assessed as rate constant for covalent modification by measuring Kobs/[I] at 10 uM by liquid chromatography-electrospray mass spectrometry analysis
[2] = Binding affinity to GppNHp-bound N-terminal His6-tagged KRAS4B G12D mutant (1 to 169 residues) (unknown origin) at 10 uM by 19F NMR Spectroscopy; design: species or system Homo sapiens
[3] = Binding affinity to GppNHp-bound N-terminal His6-tagged KRAS4B G12D mutant (1 to 169 residues) (unknown origin) by microscale thermophoresis; design: species or system Homo sapiens
[4] = Binding affinity to GppNHp-bound N-terminal His6-tagged KRAS4B G12D mutant (1 to 169 residues) (unknown origin) by isothermal titration calorimetry; design: species or system Homo sapiens
DLD-1 [5] = assay: Antiproliferative activity against human DLD-1 cells; format: functional, cell-based
[6] = test system: GTPase KRas (Homo sapiens), P01116 [G12C]; assay: Covalent binding affinity to GDP-loaded hexahistidine-tagged KRas G12C mutant (1 to 169 residues) (unknown origin) expressed in Escherichia coli assessed as rate constant by liquid chromatography-electrospray mass spectrometry analysis
[7] = Oral bioavailability in BALB/c mouse at 10 mg/kg by LC-MS/MS analysis; format: ADME, organism-based; conditions: in vivo
GTPase KRas [8] = molecular target: T1, GTPase KRas (Homo sapiens, UniProt P01116); assay: Inhibition of KRas activation in HEK 293T-REx Flp-In cells harboring Venus-RBD-CRD/mCherry-CAAX assessed as reduction in Venus-RBD-CRD recruitment to plasma membrane by inverted confocal microscopy; design: species or system Flp-In-T-REx-293
NCI-H358 = assay: Antiproliferative activity against human NCI-H358 cells incubated for 14 days by alamar blue dye based assay; format: functional, cell-based; conditions: NCI-H358, 336 h
GTPase KRas [9] = molecular target: GTPase KRas (Homo sapiens, UniProt P01116, G12D); assay: Binding affinity to 15N-labelled GDP bound KRas G12D mutant ( 1 to 169 residues) (unknown origin) expressed in Escherichia coli Rosetta 2 (DE3) cells by 1H/15N- HSQC spectroscopy
DLD-1 [10] = assay: Antiproliferative activity against human DLD-1 cells harboring KRAS G13D mutant incubated for 72 hrs by CellTitreGlo assay; format: functional, cell-based; conditions: DLD-1, 72 h
DLD-1 [11] = assay: Antiproliferative activity against human DLD-1 cells incubated for 72 hrs by CellTitreGlo assay; format: functional, cell-based; conditions: DLD-1, 72 h
GTPase KRas [12] = molecular target: T1, GTPase KRas; assay: Inhibition of GDP-bound KRas activation (unknown origin) expressed in Escherichia coli Rosetta2 (DE3) cells assessed as reduction in SOS-catalyzed nucleotide exchange at 1 mM in presence of BODIPY-GTP by fluorescence method relative to control

Structure (SMILES): CCCC(CCC)COC(=O)[C@@H](C)NP(=O)(OCCNC(=O)CCl)OP(=O)(O)OC[C@H]1O[C@@H](n2cnc3c(=O)[nH]c(N)nc32)[C@H](O)[C@@H]1O (stereo partly specified)
- EC50 (A549): 43.8 µM

Structure (SMILES): C=CC(=O)N1CCN(c2ncnc3c(F)c(-c4c(O)cccc4F)c(Cl)cc23)CC1 (atropisomer S)
- K [1]: 1100 M⁻¹ s⁻¹

Structure (SMILES): NC1(C(=O)NCCCn2cc(-c3ccc(OC(F)(F)F)cc3)c3cc(CN4CCN(Cc5c(Cl)cccc5Cl)CC4)ccc32)CCNCC1
- Kd [2]: 9 µM
- Kd [3]: 9 µM
- Kd [4]: 9 µM
- IC50 (DLD-1 [5]): 8.8 µM

Structure (SMILES): C=CC(=O)N1CC(N2CCN(C(=O)CNc3cc(C4(C)CC4)c(Cl)cc3O)CC2)C1
- K [6]: 76 M⁻¹ s⁻¹
- K [1]: 140 M⁻¹ s⁻¹
- bioavailability [7]: > 60%

Structure (SMILES): C=CC(=O)N1CCN(c2ncnc3cc(-c4ccccc4O)c(Cl)cc23)CC1
- K [1]: 12 M⁻¹ s⁻¹

Structure (SMILES): Cc1[nH]c2cc(Cl)cc(Cl)c2c1CCN
- EC50 (GTPase KRas [8]): 15.8 µM

Structure (SMILES): Cn1cnc(Cn2ccc3ccc(CNCc4[nH]c5ccccc5c4[C@H]4NC(=O)c5ccc(O)cc54)cc32)c1
- IC50 (NCI-H358): 6.7 µM

Structure (SMILES): c1ccc2c(Cc3nc4ccncc4[nH]3)c[nH]c2c1
- Kd (GTPase KRas [9]): 1300 µM

Structure (SMILES): COc1nc(-c2cccc3c2OCCO3)ccc1Nc1ccc(CN(C)C)cc1
- IC50 (DLD-1 [10]): 8 µM

Structure (SMILES): COc1cccc(-c2ccc(Nc3ccc(CN(C)C)cc3)c(OC)c2F)c1
- IC50 (DLD-1 [11]): 4.5 µM

Structure (SMILES): CC[C@H](C)[C@H](N)C(=O)Nc1ccc2nc(Cc3c[nH]c4ccccc34)[nH]c2c1
- inhibition (GTPase KRas [12]): 78%

Source: ChEMBL document CHEMBL4673313, “Small-Molecule Inhibitors Directly Targeting KRAS as Anticancer Therapeutics” (J Med Chem, 2020)
